Measurements published in ChEMBL document CHEMBL1142734, “Biological properties of D- and L-1-deoxyazasugars” (J Med Chem, 2005).

Tests used:
[1] = target: Alpha-galactosidase (Coffea arabica) (UniProt Q5DUH8); conditions: 1000 uM
[2] = target: Sucrase-isomaltase, intestinal (Rattus norvegicus) (UniProt P23739); conditions: 1000 uM
[3] = target: T1, Beta-galactosidase (Rattus norvegicus) (UniProt D3ZUM4); test: Percent inhibition of beta-galactosidase of rat epididymis at 1000 uM
T1 sequence (whole entry): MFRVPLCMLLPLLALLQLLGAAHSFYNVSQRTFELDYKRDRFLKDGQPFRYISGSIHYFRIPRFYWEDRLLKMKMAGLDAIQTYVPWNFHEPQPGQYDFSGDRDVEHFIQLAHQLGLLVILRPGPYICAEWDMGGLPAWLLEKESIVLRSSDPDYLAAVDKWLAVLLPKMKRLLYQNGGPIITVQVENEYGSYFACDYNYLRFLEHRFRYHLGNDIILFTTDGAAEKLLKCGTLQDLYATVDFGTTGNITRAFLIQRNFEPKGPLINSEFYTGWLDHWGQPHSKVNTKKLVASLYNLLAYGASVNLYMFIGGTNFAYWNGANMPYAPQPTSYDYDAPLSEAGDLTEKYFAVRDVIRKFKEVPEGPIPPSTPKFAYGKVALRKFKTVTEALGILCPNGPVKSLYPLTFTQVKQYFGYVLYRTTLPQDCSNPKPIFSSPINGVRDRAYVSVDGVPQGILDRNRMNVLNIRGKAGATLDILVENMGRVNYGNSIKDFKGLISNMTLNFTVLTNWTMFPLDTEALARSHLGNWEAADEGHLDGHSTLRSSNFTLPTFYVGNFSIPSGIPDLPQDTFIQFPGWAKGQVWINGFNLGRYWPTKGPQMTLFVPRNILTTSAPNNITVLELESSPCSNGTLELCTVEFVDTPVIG

[4] = target: T2, Alpha-galactosidase C (Aspergillus niger) (UniProt Q9UUZ4); test: Percent inhibition of alpha-galactosidase of Aspergillus niger at 1000 uM
T2 sequence (whole entry): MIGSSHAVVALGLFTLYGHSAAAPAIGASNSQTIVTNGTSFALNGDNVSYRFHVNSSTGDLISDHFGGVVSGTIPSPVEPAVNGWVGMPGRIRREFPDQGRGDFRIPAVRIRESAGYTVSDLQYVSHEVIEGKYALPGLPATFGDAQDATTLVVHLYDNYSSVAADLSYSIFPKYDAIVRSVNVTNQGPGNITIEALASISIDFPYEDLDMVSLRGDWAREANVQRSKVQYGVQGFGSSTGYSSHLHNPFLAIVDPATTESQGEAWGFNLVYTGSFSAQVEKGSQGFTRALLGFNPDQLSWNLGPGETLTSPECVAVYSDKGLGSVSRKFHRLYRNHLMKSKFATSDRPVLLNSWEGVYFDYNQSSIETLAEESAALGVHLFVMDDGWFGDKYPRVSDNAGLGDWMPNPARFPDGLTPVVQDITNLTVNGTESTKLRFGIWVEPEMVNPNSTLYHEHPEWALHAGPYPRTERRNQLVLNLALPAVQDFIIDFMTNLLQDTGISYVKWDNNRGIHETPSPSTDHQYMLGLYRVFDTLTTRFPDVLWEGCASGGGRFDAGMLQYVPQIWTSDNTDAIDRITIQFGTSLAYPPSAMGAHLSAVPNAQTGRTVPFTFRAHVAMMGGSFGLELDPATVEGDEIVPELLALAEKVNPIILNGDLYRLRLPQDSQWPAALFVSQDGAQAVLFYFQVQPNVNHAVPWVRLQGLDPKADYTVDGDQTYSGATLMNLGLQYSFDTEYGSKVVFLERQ

[5] = target: T3, Beta-galactosidase (Bos taurus) (UniProt Q58D55); test: Percent inhibition of beta-galactosidase of bovine liver at 1000 uM
T3 sequence (whole entry): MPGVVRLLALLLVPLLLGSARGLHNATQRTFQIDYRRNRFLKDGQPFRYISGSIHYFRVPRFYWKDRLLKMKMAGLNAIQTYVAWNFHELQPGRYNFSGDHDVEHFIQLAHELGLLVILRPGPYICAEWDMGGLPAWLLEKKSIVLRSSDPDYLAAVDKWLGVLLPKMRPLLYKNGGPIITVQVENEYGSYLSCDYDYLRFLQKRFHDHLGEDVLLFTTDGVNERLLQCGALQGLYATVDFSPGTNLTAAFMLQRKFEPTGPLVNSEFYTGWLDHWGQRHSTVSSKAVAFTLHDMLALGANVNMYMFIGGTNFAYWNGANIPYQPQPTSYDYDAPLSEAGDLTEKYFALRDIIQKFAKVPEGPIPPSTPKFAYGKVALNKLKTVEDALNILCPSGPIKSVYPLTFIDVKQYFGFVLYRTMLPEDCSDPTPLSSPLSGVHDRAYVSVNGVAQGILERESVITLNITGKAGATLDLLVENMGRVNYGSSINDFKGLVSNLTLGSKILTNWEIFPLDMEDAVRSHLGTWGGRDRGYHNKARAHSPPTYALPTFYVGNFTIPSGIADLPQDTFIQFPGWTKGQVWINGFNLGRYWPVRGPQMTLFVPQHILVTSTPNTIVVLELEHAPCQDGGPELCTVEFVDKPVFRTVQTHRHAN

[6] = target: T4, Tissue alpha-L-fucosidase (Bos taurus, UniProt Q2KIM0); test: Ki value against bovine alpha-L-fucosidase
T4 sequence (Q2KIM0 whole entry): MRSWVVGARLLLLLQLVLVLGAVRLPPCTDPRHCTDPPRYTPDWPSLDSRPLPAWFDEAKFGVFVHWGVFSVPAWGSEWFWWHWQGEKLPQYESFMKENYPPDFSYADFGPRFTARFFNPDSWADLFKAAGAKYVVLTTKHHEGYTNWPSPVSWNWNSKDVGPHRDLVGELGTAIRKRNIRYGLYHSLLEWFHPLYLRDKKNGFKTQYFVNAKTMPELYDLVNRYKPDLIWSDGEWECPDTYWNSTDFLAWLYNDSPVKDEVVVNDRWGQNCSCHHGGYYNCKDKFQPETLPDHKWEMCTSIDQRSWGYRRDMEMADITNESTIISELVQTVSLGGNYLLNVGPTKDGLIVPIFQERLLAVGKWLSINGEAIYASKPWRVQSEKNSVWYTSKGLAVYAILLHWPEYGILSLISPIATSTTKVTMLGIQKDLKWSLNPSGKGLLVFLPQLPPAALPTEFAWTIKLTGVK

[7] = target: T5, Beta-mannosidase (Rattus norvegicus) (UniProt Q4FZV0); test: Percent inhibition of beta-mannosidase of rat epididymis at 1000 uM
T5 sequence (whole entry): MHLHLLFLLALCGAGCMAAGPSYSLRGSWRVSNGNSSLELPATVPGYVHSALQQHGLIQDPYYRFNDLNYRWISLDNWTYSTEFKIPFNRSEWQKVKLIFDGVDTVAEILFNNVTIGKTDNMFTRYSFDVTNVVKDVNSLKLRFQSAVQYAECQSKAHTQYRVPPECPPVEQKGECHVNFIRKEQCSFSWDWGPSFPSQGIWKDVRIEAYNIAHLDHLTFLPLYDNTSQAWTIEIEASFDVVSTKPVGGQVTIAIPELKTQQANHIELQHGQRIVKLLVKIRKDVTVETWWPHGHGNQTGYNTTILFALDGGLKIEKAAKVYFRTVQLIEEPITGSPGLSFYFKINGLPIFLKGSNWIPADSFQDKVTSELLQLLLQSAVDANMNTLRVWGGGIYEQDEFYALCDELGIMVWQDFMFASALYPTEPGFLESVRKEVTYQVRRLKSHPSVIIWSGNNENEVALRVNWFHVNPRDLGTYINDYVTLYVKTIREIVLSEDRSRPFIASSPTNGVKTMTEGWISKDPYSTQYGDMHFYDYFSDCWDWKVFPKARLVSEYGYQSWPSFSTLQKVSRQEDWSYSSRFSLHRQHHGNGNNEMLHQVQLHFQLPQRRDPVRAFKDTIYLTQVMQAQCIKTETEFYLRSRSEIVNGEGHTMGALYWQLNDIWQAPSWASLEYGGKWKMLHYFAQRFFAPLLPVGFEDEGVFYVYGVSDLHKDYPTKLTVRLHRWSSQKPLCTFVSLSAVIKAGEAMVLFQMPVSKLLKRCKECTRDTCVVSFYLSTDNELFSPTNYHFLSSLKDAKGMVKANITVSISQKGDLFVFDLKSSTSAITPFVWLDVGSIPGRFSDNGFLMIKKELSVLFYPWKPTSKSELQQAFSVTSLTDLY

[8] = target: T6, Tissue alpha-L-fucosidase (Bos taurus) (UniProt Q2KIM0); conditions: 1000 uM
T6 sequence (whole entry): T4 sequence (Q2KIM0 whole entry)

Chain of Sucrase-isomaltase, intestinal (Rattus norvegicus) (P23739 1-1013 limits assumed): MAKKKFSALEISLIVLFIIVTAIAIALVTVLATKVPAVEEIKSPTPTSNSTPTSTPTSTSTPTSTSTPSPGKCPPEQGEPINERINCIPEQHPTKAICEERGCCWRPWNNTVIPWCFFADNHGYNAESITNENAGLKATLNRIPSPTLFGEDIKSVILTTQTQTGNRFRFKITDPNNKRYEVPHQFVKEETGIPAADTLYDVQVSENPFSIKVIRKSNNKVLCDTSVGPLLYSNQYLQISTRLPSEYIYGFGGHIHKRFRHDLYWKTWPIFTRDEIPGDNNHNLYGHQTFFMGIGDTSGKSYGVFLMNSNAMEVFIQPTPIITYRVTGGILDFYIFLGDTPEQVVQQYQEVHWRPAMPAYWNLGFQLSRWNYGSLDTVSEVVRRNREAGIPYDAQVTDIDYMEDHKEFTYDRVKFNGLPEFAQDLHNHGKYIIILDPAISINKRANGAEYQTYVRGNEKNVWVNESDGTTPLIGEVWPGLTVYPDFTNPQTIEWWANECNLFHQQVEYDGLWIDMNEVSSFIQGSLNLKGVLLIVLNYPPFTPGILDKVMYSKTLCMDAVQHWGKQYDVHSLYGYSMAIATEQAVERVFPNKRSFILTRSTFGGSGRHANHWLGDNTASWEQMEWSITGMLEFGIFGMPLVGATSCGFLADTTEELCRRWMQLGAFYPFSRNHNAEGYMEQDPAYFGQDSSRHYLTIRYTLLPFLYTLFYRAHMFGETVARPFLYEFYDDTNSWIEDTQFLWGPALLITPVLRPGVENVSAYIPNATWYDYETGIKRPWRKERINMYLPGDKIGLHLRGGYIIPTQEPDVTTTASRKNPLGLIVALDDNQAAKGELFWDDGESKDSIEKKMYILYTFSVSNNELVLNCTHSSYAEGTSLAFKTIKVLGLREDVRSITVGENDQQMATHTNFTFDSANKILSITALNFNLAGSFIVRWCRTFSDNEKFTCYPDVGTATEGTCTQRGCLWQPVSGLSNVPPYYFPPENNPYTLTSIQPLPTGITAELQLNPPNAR
Chain of Sucrase-isomaltase, intestinal (Rattus norvegicus) (P23739 1014-1841 limits assumed): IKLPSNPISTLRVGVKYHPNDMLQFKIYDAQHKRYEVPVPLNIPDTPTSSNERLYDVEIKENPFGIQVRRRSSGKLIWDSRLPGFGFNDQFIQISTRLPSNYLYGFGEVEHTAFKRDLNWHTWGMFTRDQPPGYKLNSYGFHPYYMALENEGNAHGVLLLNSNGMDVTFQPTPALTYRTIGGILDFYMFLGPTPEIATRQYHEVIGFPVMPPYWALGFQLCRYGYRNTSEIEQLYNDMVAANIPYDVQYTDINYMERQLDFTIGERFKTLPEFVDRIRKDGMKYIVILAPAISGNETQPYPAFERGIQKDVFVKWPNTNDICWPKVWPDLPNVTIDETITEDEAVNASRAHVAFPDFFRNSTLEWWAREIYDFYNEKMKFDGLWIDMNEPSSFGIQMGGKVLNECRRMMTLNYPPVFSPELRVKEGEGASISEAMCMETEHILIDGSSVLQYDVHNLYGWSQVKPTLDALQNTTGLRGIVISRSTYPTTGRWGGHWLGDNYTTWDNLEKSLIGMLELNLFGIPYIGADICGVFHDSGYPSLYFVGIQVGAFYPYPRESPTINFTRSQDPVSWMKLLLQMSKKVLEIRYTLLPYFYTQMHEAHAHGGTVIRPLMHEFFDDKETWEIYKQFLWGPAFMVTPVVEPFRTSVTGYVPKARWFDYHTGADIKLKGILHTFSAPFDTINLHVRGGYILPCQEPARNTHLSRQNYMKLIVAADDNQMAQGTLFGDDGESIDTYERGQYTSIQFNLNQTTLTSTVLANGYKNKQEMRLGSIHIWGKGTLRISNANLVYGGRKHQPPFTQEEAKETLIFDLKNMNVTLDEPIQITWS
Chain of Alpha-galactosidase (Coffea arabica) (Q5DUH8 as listed by the source): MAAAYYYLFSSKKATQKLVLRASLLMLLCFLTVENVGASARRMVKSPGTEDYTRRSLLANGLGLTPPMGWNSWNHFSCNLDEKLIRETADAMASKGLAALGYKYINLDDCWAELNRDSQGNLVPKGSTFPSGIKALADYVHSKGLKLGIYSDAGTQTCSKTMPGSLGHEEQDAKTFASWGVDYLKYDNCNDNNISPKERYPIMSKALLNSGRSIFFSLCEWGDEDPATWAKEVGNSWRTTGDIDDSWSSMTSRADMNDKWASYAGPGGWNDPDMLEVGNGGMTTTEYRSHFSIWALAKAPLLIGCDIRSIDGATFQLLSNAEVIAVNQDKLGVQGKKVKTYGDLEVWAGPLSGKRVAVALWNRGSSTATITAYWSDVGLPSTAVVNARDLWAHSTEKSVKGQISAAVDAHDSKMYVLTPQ

## OC[C@H]1NC[C@@H](O)[C@H](O)[C@@H]1O
[1]
  inhibition: < 50%
[2]
  inhibition: < 50%
[3]
  inhibition: < 50%
[4]
  inhibition: < 50%
[5]
  inhibition: < 50%

## C[C@@H]1NC[C@@H](O)[C@H](O)[C@@H]1O [DEOXYFUCONOJIRIMYCIN]
[6]
  Ki: 1.7 nM

## OC[C@@H]1NC[C@H](O)[C@@H](O)[C@H]1O
[1]
  inhibition: < 50%
[2]
  inhibition: < 50%
[3]
  inhibition: < 50%
[7]
  inhibition: < 50%
[4]
  inhibition: < 50%
[5]
  inhibition: < 50%
[8]
  inhibition: < 50%
